Read-outs that look alike come from different tables or passages of the source. Where a SMILES comes first, the peptide text is derived from it. Bridges are numbered along the chain shown (N, C = ends). Where no end group is shown, it is not given here. [ ]: non-standard residue; d: D form. 2Nal = N[C@@H](Cc1ccc2ccccc2c1)C(=O)O; Lys(iPr) = CC(C)NCCCC[C@H](N)C(=O)O
How the values were obtained:
somatostatin receptors = biological target: T1, somatostatin receptors (Rattus norvegicus, UniProt P30680); assay: Somatostatin membrane receptor assay, 125I-[Tyr11]SS-14, AR 42J cell membranes; assay type: binding; details: Cheng method; table prints no unit (b360 gives nM for a Table 4 value); read-out: affinity, 125I-[Tyr11]SS-14, AR 42J Cell Membranes (somatostatin receptors)
T1 construct: endogenous in cells; host or cells: rat AR 42J pancreatic acinar tumor cell membranes
T1 sequence (P30680 whole entry): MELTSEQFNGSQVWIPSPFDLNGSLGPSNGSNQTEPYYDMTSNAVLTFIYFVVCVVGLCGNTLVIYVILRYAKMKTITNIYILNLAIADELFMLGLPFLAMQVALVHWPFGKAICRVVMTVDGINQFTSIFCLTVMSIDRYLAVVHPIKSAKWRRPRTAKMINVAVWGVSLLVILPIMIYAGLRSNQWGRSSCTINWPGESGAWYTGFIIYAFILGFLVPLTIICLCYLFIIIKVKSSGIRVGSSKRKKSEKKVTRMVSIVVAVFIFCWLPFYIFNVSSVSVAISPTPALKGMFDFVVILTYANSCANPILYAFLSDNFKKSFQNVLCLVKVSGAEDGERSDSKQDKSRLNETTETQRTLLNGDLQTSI

mu opioid receptors = biological target: T2, mu opioid receptors (Rattus norvegicus, UniProt P33535); assay: Mu opioid membrane assay, [3H]DAGO, rat forebrain membranes; assay type: binding; details: Cheng method; unit inferred; read-out: affinity, [3H]DAGO, Rat Forebrain membranes (mu opioid receptors)
T2 construct: rat forebrain (TRH, mu and delta opioid membrane assays); from tissue; host or cells: rat forebrain membranes
T2 sequence (P33535 whole entry): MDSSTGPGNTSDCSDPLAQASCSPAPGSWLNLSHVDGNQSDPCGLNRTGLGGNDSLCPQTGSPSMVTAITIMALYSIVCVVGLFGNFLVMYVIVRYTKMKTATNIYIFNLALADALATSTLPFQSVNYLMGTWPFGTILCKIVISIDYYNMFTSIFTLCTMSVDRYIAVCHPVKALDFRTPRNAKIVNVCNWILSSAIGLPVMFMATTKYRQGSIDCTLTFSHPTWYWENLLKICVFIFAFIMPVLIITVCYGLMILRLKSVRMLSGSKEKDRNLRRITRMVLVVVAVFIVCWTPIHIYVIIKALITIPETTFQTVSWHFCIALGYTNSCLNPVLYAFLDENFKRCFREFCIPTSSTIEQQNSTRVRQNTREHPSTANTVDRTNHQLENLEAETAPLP

NMB receptor [1] = biological target: T3, NMB receptor (Rattus norvegicus, UniProt P24053); assay: NMB membrane receptor assay, 125I-NMB, rat olfactory bulb membranes; assay type: binding; set-up: Membranes were prepared from rat olfactory bulb (NMB membrane receptor assay); from tissue; host or cells: rat olfactory bulb membranes; details: Cheng method; unit inferred; read-out: affinity, 125I-NMB, Rat Olfactory bulb membranes (neuromedin B receptors)
T3 sequence (P24053 1-390): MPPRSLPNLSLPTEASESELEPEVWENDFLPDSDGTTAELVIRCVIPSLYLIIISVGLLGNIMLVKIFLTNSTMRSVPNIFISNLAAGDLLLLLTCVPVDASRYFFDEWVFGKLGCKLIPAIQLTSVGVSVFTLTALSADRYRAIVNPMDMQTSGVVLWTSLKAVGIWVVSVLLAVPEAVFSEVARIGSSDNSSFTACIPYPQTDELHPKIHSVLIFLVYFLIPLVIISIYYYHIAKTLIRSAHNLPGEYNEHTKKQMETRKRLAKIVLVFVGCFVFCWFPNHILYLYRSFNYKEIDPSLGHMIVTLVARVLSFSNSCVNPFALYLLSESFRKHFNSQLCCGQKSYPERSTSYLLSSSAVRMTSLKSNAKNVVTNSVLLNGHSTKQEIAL

rat NMB receptor = biological target: T4, rat NMB receptor (Rattus norvegicus, UniProt P24053); assay: Binding of 125I-[D-Tyr0]NMB to NMB-R transfected BALB 3T3 cells
T4 construct: a full length NMB-preferring bombesin receptor clone generated from rat esophagus; expressed in transfected cells
T4 sequence (P24053 1-390): T3 sequence (P24053 1-390)
Experimental: (§1) Cells were passaged every 3-4 days at confluence, using 0.1% trypsin in 1 mM EDTA. Rat glioblastoma C-6 tumor cells were maintained similarly and were passaged weekly at confluence. Both cell lines were cultured at 37° C. in a 5% CO2 atmosphere. Rat AR 42J pancreatic acinar cells were cultured in Dulbecco's modified Eagle's medium (DMEM) without antibiotics and supplemented with 10% (vol/vol) fetal calf serum. The incubation atmosphere consisted of 10% CO2 -90% humidified air at 37° C.

GRP receptor [2] = biological target: T5, GRP receptor (Rattus norvegicus, UniProt P52500); assay: GRP membrane receptor assay, 125I-[Tyr4]Bn, AR 42J cell membranes; assay type: binding; set-up: endogenous in cells; host or cells: rat AR 42J pancreatic acinar tumor cell membranes; details: read-out: affinity, 125I-[Tyr4]Bn, AR 42J Cell Membranes (GRP receptors); Cheng method; unit inferred
T5 sequence (P52500 whole entry): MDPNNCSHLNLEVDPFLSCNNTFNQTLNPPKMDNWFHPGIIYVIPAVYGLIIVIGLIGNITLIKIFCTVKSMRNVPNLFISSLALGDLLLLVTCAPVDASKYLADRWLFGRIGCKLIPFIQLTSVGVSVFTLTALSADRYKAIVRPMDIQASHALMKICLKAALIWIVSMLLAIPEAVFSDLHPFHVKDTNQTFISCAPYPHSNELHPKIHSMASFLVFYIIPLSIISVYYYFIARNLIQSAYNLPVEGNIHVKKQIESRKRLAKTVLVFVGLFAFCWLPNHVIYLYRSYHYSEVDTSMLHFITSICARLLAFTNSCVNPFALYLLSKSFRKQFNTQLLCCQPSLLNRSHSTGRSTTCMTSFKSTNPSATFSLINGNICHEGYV

[3] = biological target: T6, NMB receptors on C-6 cells (Rattus norvegicus, UniProt P24053); assay: Binding of 125I-[D-Tyr0]NMB to C-6 glioblastoma cells; details: Ki by Cheng method, read-out: Ki 125I-NMB Binding, NMB Receptor, C-6 Cells
T6 construct: endogenous in cells; host or cells: rat glioblastoma C-6 cells
T6 sequence (P24053 1-390): T3 sequence (P24053 1-390)
Experimental: Binding of ^125 I-[D-Tyr^0 ]NMB to C-6 glioblastoma and NMB-R transfected cells
Binding studies using rat glioblastoma C-6 or NMB-R transfected cells were performed as described previously [Benya, R. V. et al. Mol. Pharmacol. 42:1058 (1992); and Wang, L-H. et al. Biochem. J. 286:641 (1992)] by suspending disaggregated cells in binding buffer, which was composed of standing buffer ([…], 7.7 mM KCl, 1.0 mM EGTA, 0.02% soybean trypsin inhibitor) additionally containing 50 mM HEPES, 1 mM MgCl2, 1.5 mM CaCl2, 2.2 mM KH2 PO4, 0,015% glutamine, and 0.2% BSA (w/v) (pH 7.4). Incubations contained 75 pM ^125 I-[D-Tyr^0 ]NMB and 15×10^6 C-6 cells/ml or 2×10^6 NMB-R transfected cells/ml, for 60 min at 22° C. Nonsaturable binding of ^125 I-[D-Tyr^0 ]NMB was the amount of radioactivity associated with C-6 cells or NMB-R transfected cells when the incubation mixture contained […] NMB. Nonsaturable binding was<15% of total binding in all experiments; all values are reported herein as saturable binding (i.e., total minus nonsaturable binding).

[4] = biological target: T7, GRP receptors on rat pancreatic acini (Rattus norvegicus, UniProt P52500); assay: Binding of 125I-[Tyr4]bombesin to pancreatic acini; details: read-out: Ki 125I-[Tyr4]Bn Binding, GRP Receptor, Rat Pancreatic Acini; Ki by Cheng method
T7 construct: from tissue; host or cells: dispersed pancreatic acini
T7 sequence (P52500 whole entry): as above
Excerpt: Nonsaturable binding was<10% of total binding in all experiments.

GRP receptor [5] = biological target: T5, GRP receptor; assay: Amylase release from rat pancreatic acini (alone or Bn-stimulated); assay type: cell-based; set-up: from tissue; host or cells: dispersed pancreatic acini
Experimental: pancreatic acini or [^3 H]myo[2H]inositolloaded NMBR transfected cell
were incubated either with no additives, the somatostatin octapeptide
analog, Bn, or NMB, or a combination for 30 min at 37° C.. Amylase
release from pancreatic acini was expressed at the indicated percent of
the total cellular amylase released during the incubation. [^3 H]IP i
expressed in dpm's. To test for inhibitory effects, the effect of
somatostatin analog (10 μM) was determined on 0.3 nM Bnstimulated

NMB receptor [6] = biological target: T3, NMB receptor; assay: [3H]inositol phosphates in NMB-R transfected cells (alone or NMB-stimulated); assay type: cell-based; set-up: a full length NMB-preferring bombesin receptor clone generated from rat esophagus; expressed in transfected cells; details: NMB-R transfected cells; for IC50: 3 nM NMB
Experimental: as §1, with “As described previously [Wada, E., et al. Neuron 6:421 (1991)], BALB 3T3 cells expressing a stably transfected rat NMB receptor (NMB-R transfected cells) were obtained using calcium phosphate precipitation of a full length NMB-preferring bombesin receptor clone generated from rat esophagus and subcloned into a modified version of the pCD2 plasmid. Cells” for “Cells”
Measurement of phosphoinositides
Total phosphoinositides in C-6 cells and in NMB-R transfected cells were determined as described previously, with minor modifications [Benya, R. V. et al. Mol. Pharmacol. 42:1058 (1992); and Wang, L-H. et al. Biochem. Jo 286:641 (1992)]. Cells were grown to confluence in 24-well plates and then loaded with 100 μCi/ml myo-[2-^3 H]inositol in Dulbecco's modified essential medium with 2% fetal bovine serum at 37° C. for 48 hrs. Cells were washed and incubated in phosphoinositide buffer (standard buffer additionally containing 10 mM LiCl, 20 mM HEPES, 2 mM CaCl2, 2% BSA, and 1.2 mM MgSO4) for 15 min and then for 60 min at 37° C. with agonists at various concentrations or with 3 nM NMB (a half-maximal effective concentration) and possible antagonists at different concentrations. Reactions were halted using ice-cold 1% HCl in methanol, and the inositol phosphates (IP) were isolated as described previously [Bologna, M. et al. Cancer 63:1714 (1989); and Endo, T. et al. J. Endocrinolo 131:313 (1991)]. Briefly, after loading of the anion exchange column, free [^3 H]glycerophosphorylinositol was removed by washing with 5 mM disodium tetraborate in 60 mM sodium formate. Total [^3 H]inositol phosphates were then eluted using 100 mM formic acid in 1.0M ammonium formate as described previously [Benya, R. V. et al. Mol. Pharmacol. 42:1058 (1992); and Wang, L-H. et al. Biochem. J. 286:641 (1992 )].

Compound | Ki (somatostatin receptors) [nM] | Ki (mu opioid receptors) [µM] | Ki (NMB receptor [1]) [µM] | Kd (rat NMB receptor; NMB-R transfected cells, read-out: Kd of NMB for NMB receptors without cyclo SS-octa) [µM] | Ki (GRP receptor [2]) [µM] | Ki [3] [µM] | Ki (rat NMB receptor; NMB-R transfected BALB 3T3 cells, Ki by Cheng method, read-out: Ki 125I-NMB Binding, NMB Receptor, Transfected Cells) [µM] | fold by which cyclo SS-octa is more potent than the analog, 125I-NMB binding (rat NMB receptor; NMB-R transfected cells) [fold] | Ki (rat NMB receptor; NMB-R transfected cells, value or range given for a group, read-out: K1, 125I-NMB binding to NMB-R transfected cells (text)) [µM] | Ki [4] [µM] | Amylase Release, analog Alone (10 μM) (GRP receptor [5]; analog 10 μM alone, control 4 ± 1) [% total] | Amylase Release, analog Plus Bn (0.3 nM) (GRP receptor [5]; analog 10 μM plus Bn 0.3 nM, Bn without analog 15 ± 1) [% total] | IC50 (GRP receptor [5]; read-out: IC50 Amylase Release, GRP Receptor, Rat Pancreatic Acini) [µM] | IC50 (NMB receptor [6]; read-out: IC50 NMB-stimulated [3H]IP, NMB Receptor, Transfected Cells) [µM] | IC50 (NMB receptor [6]; read-out: IC50 NMB-stimulated [3H]IP, Transfected Cells (values in μM)) [µM] | [3H]IP, analog Alone (10 μM) (NMB receptor [6]; analog 10 μM alone, control 13 ± 3) [dym × 10^3] | [3H]IP, analog Plus NMB (3 nM) (NMB receptor [6]; analog 10 μM plus NMB 3 nM, NMB without analog 186 ± 58) [dym × 10^3]
gastrin-releasing peptide (VPLPAGGGTVLTKMYPRGNHWAVGHLM; ends and bridges not checked; UniProt P07492 24-50, looked up) [GRP, mammalian bombesin-related peptide, from Peninsula Laboratories, reference compound] | > 10000 | > 10 | 0.297 ± 0.015 |  |  |  |  |  |  |  |  |  |  |  |  |  | 
CSCC[C@H](NC(=O)[C@H](Cc1ccccc1)NC(=O)[C@H](Cc1c[nH]cn1)NC(=O)CNC(=O)[C@@H](NC(=O)[C@H](C)NC(=O)[C@H](Cc1c[nH]c2ccccc12)NC(=O)[C@H](CC(C)C)NC(=O)[C@H](CC(N)=O)NC(=O)CN)[C@@H](C)O)C(N)=O [NMB, neuromedin B, reference compound] | > 10000 | > 10 | 0.0011 ± 0.0002 | 0.0031 ± 0.0002 | 0.019 ± 0.001 |  |  |  |  |  |  |  |  |  |  |  | 
CC(C)NCCCC[C@@H]1NC(=O)[C@@H](Cc2c[nH]c3ccccc23)NC(=O)[C@H](Cc2ccc(O)cc2)NC(=O)[C@@H](NC(=O)[C@H](N)Cc2ccccc2)CSSC[C@@H](C(=O)N[C@@H](Cc2ccc3ccccc3c2)C(N)=O)NC(=O)[C@H]([C@@H](C)O)NC1=O [Analog #15, H2 -D-phe-Cys-Tyr-D-Trp-Lys(ipr)-Thr-Cys-Nal-NH2] (H-[dF]CY[dW][Lys(iPr)]TC[2Nal]-NH2; disulfide 2-7) |  |  |  |  |  | 1.14 ± 0.105 | 2.33 ± 0.397 | 9 | 1.4 to 2.3 | 38.1 ± 21.5 | 4 ± 2 | 13 ± 2 | > 10 | 9.9 ± 2.31 | 7.2 to 9.8 | 11 ± 1 | 67 ± 7
